Test results taken from patent US20230085307A1, “PYRIDAZINONE COMPOUND AND HERBICIDE” (NISSAN CHEMICAL CORPORATION, priority 2019, published 2023).

Experiments:
[1] = test system: southern crabgrass; test: Test Example 5: herbicidal effect by foliage application, plastic box (Table 20, symbol F); format: in vivo, southern crabgrass (Digitaria ciliaris)
Method in brief: (§1)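 Plants sown in sterilized diluvial soil and grown 14 days in a greenhouse at 25° C to 30° C, then sprayed on the foliage with the compound's emulsion diluted in water to a predetermined herbicide amount. Injury to weeds and crops scored three weeks after application on a visual rating scale.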

[2] = test system: green foxtail; test: Test Example 5: herbicidal effect by foliage application, plastic box (Table 20, symbol G); format: in vivo, green foxtail (Setaria viridis)
Method in brief: as §1

[3] = test system: barnyard grass; test: Test Example 5: herbicidal effect by foliage application, plastic box (Table 20, symbol H); format: in vivo, barnyard grass (Echinochloa crus-galli)
Method in brief: as §1

[4] = test system: wild oat; test: Test Example 5: herbicidal effect by foliage application, plastic box (Table 20, symbol I); format: in vivo, wild oat (Avena fatua)
Method in brief: as §1

[5] = test system: blackgrass; test: Test Example 5: herbicidal effect by foliage application, plastic box (Table 20, symbol J); format: in vivo, blackgrass (Alopecurus myosuroides)
Method in brief: as §1

[6] = test system: Italian ryegrass; test: Test Example 5: herbicidal effect by foliage application, plastic box (Table 20, symbol K); format: in vivo, Italian ryegrass (Lolium multiflorum)
Method in brief: as §1

[7] = test system: windgrass; test: Test Example 5: herbicidal effect by foliage application, plastic box (Table 20, symbol L); format: in vivo, windgrass (Apera spica-venti)
Method in brief: as §1

[8] = test system: velvetleaf; test: Test Example 5: herbicidal effect by foliage application, plastic box (Table 20, symbol M); format: in vivo, velvetleaf (Abutilon theophrasti)
Method in brief: as §1

[9] = test system: redroot pigweed; test: Test Example 5: herbicidal effect by foliage application, plastic box (Table 20, symbol N); format: in vivo, redroot pigweed (Amaranthus retroflexus)
Method in brief: as §1

[10] = test system: lambsquarters; test: Test Example 5: herbicidal effect by foliage application, plastic box (Table 20, symbol O); format: in vivo, lambsquarters (Chenopodium album)
Method in brief: as §1

[11] = test system: chickweed; test: Test Example 5: herbicidal effect by foliage application, plastic box (Table 20, symbol P); format: in vivo, common chickweed (Stellaria media)
Method in brief: as §1

[12] = test system: false cleavers; test: Test Example 5: herbicidal effect by foliage application, plastic box (Table 20, symbol Q); format: in vivo, false cleavers (Galium spurium)
Text: [Test Example 5] Herbicidal Effect Test by Foliage Application
Sterilized diluvial soil was placed in a plastic box having a length of 21 cm, a width of 13 cm, and a depth of 7 cm. The seeds of each of southern crabgrass, green foxtail, barnyard grass, wild oat, blackgrass, Italian ryegrass, windgrass, velvetleaf, redroot pigweed, lambsquarters, chickweed, false cleavers, persian speedwell, corn, soybean, rice, wheat, beet, and rapeseed were sowed in a spot-like manner and covered with the soil having a thickness of about 1.5 cm. Thereafter, the plants were grown in a greenhouse at 25° C. to 30° C. After 14-day growth of the plants, the emulsion agent of the compound of the present invention prepared according to Formulation Example 2 was diluted with water so as to achieve a predetermined herbicide amount, and the diluted emulsion agent was uniformly applied to a foliage part with a small-sized spray. Three weeks after the herbicide application, the effect of the herbicide on each plant was evaluated according to the criteria of Test Example 1.

[13] = test system: persian speedwell; test: Test Example 5: herbicidal effect by foliage application, plastic box (Table 20, symbol R); format: in vivo, Persian speedwell (Veronica persica)
Method in brief: as §1

[14] = test system: barnyard grass; test: Test Example 3: herbicidal effect by foliage application, Wagner pot (Table 18, symbol H); format: in vivo, barnyard grass (Echinochloa crus-galli); settings: 320 g/ha
Method in brief: (§2)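 Plants were sown in alluvial soil held under 0.1–0.5 cm standing water and grown 14 days in a greenhouse at 25–30 °C. An emulsifiable formulation, water-diluted to the set dose, was then sprayed onto the foliage, and effects were scored three weeks later using previously defined criteria.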

[15] = test system: Chinese sprangletop; test: Test Example 3: herbicidal effect by foliage application, Wagner pot (Table 18, symbol D); format: in vivo, chinese sprangletop (Leptochloa chinensis); settings: 320 g/ha
Method in brief: as §2

[16] = test system: rice flat sedge; test: Test Example 3: herbicidal effect by foliage application, Wagner pot (Table 18, symbol E); format: in vivo, rice flat sedge (Cyperus iria); settings: 320 g/ha
Method in brief: as §2

[17] = foliage application, 320 g/ha, three weeks after application
[18] = foliage application, 320 g/ha, evaluated three weeks after application
[19] = 320 g/ha, foliage application after 14-day growth, evaluated three weeks after application
[20] = amount of applied herbicide 320 g/ha, foliage application after 14-day growth, evaluated three weeks after application

Compound: CCCC(=O)Oc1c(C)nn(C)c(=O)c1-c1c(-c2ccc(OC)cc2)sc2cc(C)ccc12 [3-052]
- F: southern crabgrass, herbicidal effect grade [1, 17]: 0 (Herbicidal rate of 5% or less (almost no effect))
- G: green foxtail, herbicidal effect grade [2, 17]: 3 (Herbicidal rate of 40% or more and less than 70%)
- H: barnyard grass, herbicidal effect grade [3, 17]: 0 (Herbicidal rate of 5% or less (almost no effect))
- I: wild oat, herbicidal effect grade [4, 17]: 0 (Herbicidal rate of 5% or less (almost no effect))
- J: blackgrass, herbicidal effect grade [5, 17]: 0 (Herbicidal rate of 5% or less (almost no effect))
- K: Italian ryegrass, herbicidal effect grade [6, 17]: 0 (Herbicidal rate of 5% or less (almost no effect))
- L: windgrass, herbicidal effect grade [7, 17]: 0 (Herbicidal rate of 5% or less (almost no effect))
- M: velvetleaf, herbicidal effect grade [8, 17]: 3 (Herbicidal rate of 40% or more and less than 70%)
- N: redroot pigweed, herbicidal effect grade [9, 17]: 0 (Herbicidal rate of 5% or less (almost no effect))
- O: lambsquarters, herbicidal effect grade [10, 17]: 0 (Herbicidal rate of 5% or less (almost no effect))
- P: chickweed, herbicidal effect grade [11, 17]: 5 (Herbicidal rate of 90% or more (almost completely withered))
- Q: false cleavers, herbicidal effect grade [12, 17]: 2 (Herbicidal rate of 20% or more and less than 40%)
- R: persian speedwell, herbicidal effect grade [13, 17]: 5 (Herbicidal rate of 90% or more (almost completely withered))

Compound: COc1cc(F)ccc1-c1sc2ccc(-c3ccc(OC(C)C)cc3)cc2c1-c1c(O)c(C)nn(C)c1=O [2-167]
- herbicidal effect on F: southern crabgrass (criteria 0-5) [1, 18]: 0 (Herbicidal rate of 5% or less (almost no effect))
- herbicidal effect on G: green foxtail (criteria 0-5) [2, 18]: 0 (Herbicidal rate of 5% or less (almost no effect))
- herbicidal effect on H: barnyard grass (criteria 0-5) [3, 18]: 0 (Herbicidal rate of 5% or less (almost no effect))
- herbicidal effect on I: wild oat (criteria 0-5) [4, 18]: 0 (Herbicidal rate of 5% or less (almost no effect))
- herbicidal effect on J: blackgrass (criteria 0-5) [5, 18]: 0 (Herbicidal rate of 5% or less (almost no effect))
- herbicidal effect on K: Italian ryegrass (criteria 0-5) [6, 18]: 0 (Herbicidal rate of 5% or less (almost no effect))
- herbicidal effect on L: windgrass (criteria 0-5) [7, 18]: 0 (Herbicidal rate of 5% or less (almost no effect))
- herbicidal effect on M: velvetleaf (criteria 0-5) [8, 18]: 0 (Herbicidal rate of 5% or less (almost no effect))
- herbicidal effect on N: redroot pigweed (criteria 0-5) [9, 18]: 3 (Herbicidal rate of 40% or more and less than 70%)
- herbicidal effect on O: lambsquarters (criteria 0-5) [10, 18]: 0 (Herbicidal rate of 5% or less (almost no effect))
- herbicidal effect on P: chickweed (criteria 0-5) [11, 18]: 0 (Herbicidal rate of 5% or less (almost no effect))
- herbicidal effect on Q: false cleavers (criteria 0-5) [12, 18]: 0 (Herbicidal rate of 5% or less (almost no effect))
- herbicidal effect on R: persian speedwell (criteria 0-5) [13, 18]: 0 (Herbicidal rate of 5% or less (almost no effect))

Compound: COc1cccc(-c2sc3c(Cl)cccc3c2-c2c(O)c(C)nn(C)c2=O)c1 [4-064]
- herbicidal effect on barnyard grass (H) [14]: 4 (Herbicidal rate of 70% or more and less than 90%)
- herbicidal effect on Chinese sprangletop (D) [15]: 3 (Herbicidal rate of 40% or more and less than 70%)
- herbicidal effect on rice flat sedge (E) [16]: 4 (Herbicidal rate of 70% or more and less than 90%)
- herbicidal effect on F: southern crabgrass (evaluation grade 0-5) [1, 19]: 1 (Herbicidal rate of 5% or more and less than 20%)
- herbicidal effect on G: green foxtail (evaluation grade 0-5) [2, 19]: 3 (Herbicidal rate of 40% or more and less than 70%)
- herbicidal effect on H: barnyard grass (evaluation grade 0-5) [3, 19]: 1 (Herbicidal rate of 5% or more and less than 20%)
- herbicidal effect on I: wild oat (evaluation grade 0-5) [4, 19]: 0 (Herbicidal rate of 5% or less (almost no effect))
- herbicidal effect on J: blackgrass (evaluation grade 0-5) [5, 19]: 0 (Herbicidal rate of 5% or less (almost no effect))
- herbicidal effect on K: Italian ryegrass (evaluation grade 0-5) [6, 19]: 3 (Herbicidal rate of 40% or more and less than 70%)
- herbicidal effect on L: windgrass (evaluation grade 0-5) [7, 19]: 5 (Herbicidal rate of 90% or more (almost completely withered))
- herbicidal effect on M: velvetleaf (evaluation grade 0-5) [8, 19]: 3 (Herbicidal rate of 40% or more and less than 70%)
- herbicidal effect on N: redroot pigweed (evaluation grade 0-5) [9, 19]: 5 (Herbicidal rate of 90% or more (almost completely withered))
- herbicidal effect on O: lambsquarters (evaluation grade 0-5) [10, 19]: 3 (Herbicidal rate of 40% or more and less than 70%)
- herbicidal effect on P: chickweed (evaluation grade 0-5) [11, 19]: 5 (Herbicidal rate of 90% or more (almost completely withered))
- herbicidal effect on Q: false cleavers (evaluation grade 0-5) [12, 19]: 1 (Herbicidal rate of 5% or more and less than 20%)
- herbicidal effect on R: persian speedwell (evaluation grade 0-5) [13, 19]: 5 (Herbicidal rate of 90% or more (almost completely withered))

Compound: CSc1ccccc1-c1sc2c(Cl)cccc2c1-c1c(O)c(C)nn(C)c1=O [4-086]
- herbicidal effect on barnyard grass (H) [14]: 4 (Herbicidal rate of 70% or more and less than 90%)
- herbicidal effect on Chinese sprangletop (D) [15]: 3 (Herbicidal rate of 40% or more and less than 70%)
- herbicidal effect on rice flat sedge (E) [16]: 3 (Herbicidal rate of 40% or more and less than 70%)
- Herbicidal effect by foliage application, F: southern crabgrass [1, 20]: 0 (Herbicidal rate of 5% or less (almost no effect))
- Herbicidal effect by foliage application, G: green foxtail [2, 20]: 3 (Herbicidal rate of 40% or more and less than 70%)
- Herbicidal effect by foliage application, H: barnyard grass [3, 20]: 1 (Herbicidal rate of 5% or more and less than 20%)
- Herbicidal effect by foliage application, I: wild oat [4, 20]: 0 (Herbicidal rate of 5% or less (almost no effect))
- Herbicidal effect by foliage application, J: blackgrass [5, 20]: 0 (Herbicidal rate of 5% or less (almost no effect))
- Herbicidal effect by foliage application, K: Italian ryegrass [6, 20]: 0 (Herbicidal rate of 5% or less (almost no effect))
- Herbicidal effect by foliage application, L: windgrass [7, 20]: 4 (Herbicidal rate of 70% or more and less than 90%)
- Herbicidal effect by foliage application, M: velvetleaf [8, 20]: 3 (Herbicidal rate of 40% or more and less than 70%)
- Herbicidal effect by foliage application, N: redroot pigweed [9, 20]: 4 (Herbicidal rate of 70% or more and less than 90%)
- Herbicidal effect by foliage application, O: lambsquarters [10, 20]: 3 (Herbicidal rate of 40% or more and less than 70%)
- Herbicidal effect by foliage application, P: chickweed [11, 20]: 5 (Herbicidal rate of 90% or more (almost completely withered))
- Herbicidal effect by foliage application, Q: false cleavers [12, 20]: 1 (Herbicidal rate of 5% or more and less than 20%)
- Herbicidal effect by foliage application, R: persian speedwell [13, 20]: 5 (Herbicidal rate of 90% or more (almost completely withered))
